Experimental data from PMC4820897, “Structural insight in the toppling mechanism of an energy-coupling factor transporter” (Nature Communications, 2016).

Key:
ECF–FolT2 [1] = target: T1, ECF–FolT2 (Lactobacillus delbrueckii, UniProt Q1GBI9+Q1GBJ0); test: coupled-enzyme ATPase assay in proteoliposomes; assay type: biochemical; conditions: 1 mM MgATP, 50 mM KPi pH 7.5, 200 mM NaCl, 30 °C
T1 construct: gene ecfA1; full ECF complex EcfA-EcfA'-EcfT-FolT2; N-terminal His10-tag and TEV site on EcfA, C-terminal STREPII tag on FolT2; expressed in E. coli MC1061; nucleotide sites on EcfA and EcfA'; with Energy-coupling factor transporter transmembrane protein EcfT; Folate family ECF transporter S component FolT2
T1 sequence (Q1GBI8 entry or part of it): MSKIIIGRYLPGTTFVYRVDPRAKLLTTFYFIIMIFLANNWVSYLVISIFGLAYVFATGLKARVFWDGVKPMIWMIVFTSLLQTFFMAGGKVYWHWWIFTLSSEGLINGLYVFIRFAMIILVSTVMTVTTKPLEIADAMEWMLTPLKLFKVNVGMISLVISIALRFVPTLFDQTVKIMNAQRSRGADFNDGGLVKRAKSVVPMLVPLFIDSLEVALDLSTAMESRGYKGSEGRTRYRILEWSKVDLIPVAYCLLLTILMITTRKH
T1 sequence (Q1GBJ0 whole entry): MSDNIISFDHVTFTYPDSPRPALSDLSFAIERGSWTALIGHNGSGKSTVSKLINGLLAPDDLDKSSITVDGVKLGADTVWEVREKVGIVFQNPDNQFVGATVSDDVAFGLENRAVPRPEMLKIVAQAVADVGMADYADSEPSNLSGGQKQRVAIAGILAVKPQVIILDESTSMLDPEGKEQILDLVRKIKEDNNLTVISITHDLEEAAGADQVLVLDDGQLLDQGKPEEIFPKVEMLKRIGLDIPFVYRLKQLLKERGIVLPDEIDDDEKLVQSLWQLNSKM
T1 sequence (Q1GBI9 whole entry): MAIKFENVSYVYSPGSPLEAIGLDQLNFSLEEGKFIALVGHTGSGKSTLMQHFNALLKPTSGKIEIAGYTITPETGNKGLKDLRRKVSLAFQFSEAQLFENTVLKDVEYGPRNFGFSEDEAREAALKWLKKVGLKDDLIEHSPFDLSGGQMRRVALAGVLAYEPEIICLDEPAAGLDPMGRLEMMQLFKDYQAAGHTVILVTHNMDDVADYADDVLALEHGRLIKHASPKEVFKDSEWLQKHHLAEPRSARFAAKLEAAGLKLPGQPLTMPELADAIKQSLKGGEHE
T1 sequence (Q1G929 entry or part of it, further chain): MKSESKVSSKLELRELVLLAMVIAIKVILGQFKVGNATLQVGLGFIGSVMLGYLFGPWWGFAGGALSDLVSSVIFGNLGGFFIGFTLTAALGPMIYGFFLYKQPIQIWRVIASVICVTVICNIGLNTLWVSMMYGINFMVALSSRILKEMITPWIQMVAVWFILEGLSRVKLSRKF

ECF–FolT2 [2] = target: T1, ECF–FolT2; test: crystal structure […] Å; assay type: binding; conditions: 10 mM MgCl2; one AMP-PNP bound to each of EcfA and EcfA'; ATPase dimer open
FolT2 = target: T2, FolT2 (Lactobacillus delbrueckii, UniProt Q1G929); test: intrinsic fluorescence titration; assay type: binding; conditions: read-out: dissociation constant
T2 construct: gene Ldb1625; solitary S-component, N-terminal His8-tag, expressed in Lactococcus lactis NZ9000, purified in n-nonyl-beta-D-glucopyranoside
T2 sequence (Q1G929 entry or part of it): as the sequence (Q1G929 entry or part of it, further chain) above

FolT1 [3] = target: T3, FolT1 (Lactobacillus delbrueckii, UniProt Q1G930); test: intrinsic fluorescence titration; crystal structure […] Å; assay type: binding; conditions: read-out: dissociation constant
T3 construct: gene Ldb1624; solitary S-component, N-terminal His8-tag, expressed in Lactococcus lactis NZ9000, purified in n-nonyl-beta-D-glucopyranoside
T3 sequence (Q1G930 entry or part of it): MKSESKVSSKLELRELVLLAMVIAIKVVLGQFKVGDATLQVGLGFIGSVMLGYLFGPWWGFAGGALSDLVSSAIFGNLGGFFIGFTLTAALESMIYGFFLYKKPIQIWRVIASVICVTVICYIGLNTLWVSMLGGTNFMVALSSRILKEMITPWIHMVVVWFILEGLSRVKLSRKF

FolT1 [4] = target: T4, FolT1 (Lactobacillus delbrueckii, UniProt Q1G930, Y122N); test: intrinsic fluorescence titration; assay type: binding; conditions: read-out: dissociation constant
T4 construct: gene Ldb1624; solitary S-component, N-terminal His8-tag, expressed in Lactococcus lactis NZ9000, purified in n-nonyl-beta-D-glucopyranoside
T4 sequence (Q1G930 entry or part of it Y122N): as the sequence (Q1G930 entry or part of it) above, with Y122N counted along it

ECF–FolT1 = target: T5, ECF–FolT1 (Lactobacillus delbrueckii, UniProt Q1G930); test: radiolabelled folate uptake in proteoliposomes; assay type: biochemical; conditions: luminal MgATP; labelled compound
T5 construct: gene Ldb1624; full ECF complex EcfA-EcfA'-EcfT-FolT1; His10-EcfA, FolT1-STREPII; expressed in E. coli MC1061; reconstituted in proteoliposomes; Energy-coupling factor transporter transmembrane protein EcfT
T5 sequence (Q1GBJ0 whole entry): as the sequence (Q1GBJ0 whole entry) above
T5 sequence (Q1G930 entry or part of it): as the sequence (Q1G930 entry or part of it) above
T5 sequence (Q1GBI9 whole entry, further chain): as the sequence (Q1GBI9 whole entry) above
T5 sequence (Q1GBI8 entry or part of it, further chain): as the sequence (Q1GBI8 entry or part of it) above

ECF–FolT2 [5] = target: T6, ECF–FolT2 (Lactobacillus delbrueckii, UniProt Q1G929); test: radiolabelled folate uptake and efflux in proteoliposomes; assay type: biochemical; conditions: 5 mM luminal MgATP, 100 nM folate, pH 7.5, 25 °C; labelled compound
T6 construct: gene Ldb1625; His10-EcfA, FolT2-STREPII; expressed in E. coli MC1061; reconstituted in proteoliposomes; Energy-coupling factor transporter transmembrane protein EcfT
T6 sequence (Q1GBI8 entry or part of it): as above
T6 sequence (Q1GBJ0 whole entry, further chain): as the sequence (Q1GBJ0 whole entry) above
T6 sequence (Q1GBI9 whole entry, further chain): as the sequence (Q1GBI9 whole entry) above
T6 sequence (Q1G929 entry or part of it): as the sequence (Q1G929 entry or part of it, further chain) above

Nc1ncnc2c1ncn2[C@@H]1O[C@H](COP(=O)(O)OP(=O)(O)OP(=O)(O)O)[C@@H](O)[C@H]1O [ATP]
coupled-enzyme ATPase assay in proteoliposomes (ECF–FolT2 [1]): we also measured the ATPase activity of ECF–FolT2 in the proteoliposomes

Nc1ncnc2c1ncn2[C@@H]1O[C@H](COP(=O)(O)OP(=O)(O)NP(=O)(O)O)[C@@H](O)[C@H]1O [AMP–PNP]
crystal structure 3.3 Å (ECF–FolT2 [2]): EcfA and EcfA′ each bind a molecule of the nucleotide

Nc1nc2ncc(CNc3ccc(C(=O)N[C@@H](CCC(=O)O)C(=O)O)cc3)nc2c(=O)[nH]1 [folate]
Kd (FolT2): 3.1 ± 1.4 nM
Kd (FolT1 [3]): 1 ± 0.24 nM
Kd (FolT1 [4]): 2.5 ± 1.2 nM
radiolabelled folate uptake in proteoliposomes (ECF–FolT1): Both ECF transporters mediated association of radiolabelled folate with the proteoliposomes
radiolabelled folate uptake and efflux in proteoliposomes (ECF–FolT2 [5]): ECF transporters indeed translocate their substrates across the membrane
